Tests used:
[1] = tested on: arthrite chronique à l'adjuvant; assay: Anti-inflammatory activity: chronic adjuvant arthritis (preventive treatment); format: in vivo, rat
Experimental: L'injection d'adjuvant du type Freund dans une patte postérieure provoque, chez le rat, l'apparition rapide d'une lésion inflammatoire primaire dans cette patte, puis, après un temps de latence de 13 à 15 jours, le déclenchement d'une arthrite secondaire affectant notamment l'autre patte postérieure. Le test est pratiqué sur des rats mâles âgés de 42 à 50 jours, qui reçoivent en injection intraplantaire, 0,1 ml d'adjuvant de type "Freund" (suspension dans l'huile de vaseline de 6 mg par ml de mycobacterium butyricum tués).
Les animaux reçoivent le produit étudié, par voie orale, du jour 0 (jour de l'injection de l'adjuvant) jusqu'à la veille du sacrifice, pratiqué le jour 17. Des animaux témoins arthritiques, des animaux témoins normaux ne reçoivent que le véhicule. Les critères d'appréciation de l'activité des substances étudiées sont les augmentations de volume des pattes postérieures non injectées (inflammation secondaire) par rapport au volume moyen des pattes correspondantes de témoins normaux.
On détermine la DA50, c'est-à-dire la dose qui diminue de 50% les augmentations de volume des pattes postérieures des animaux traités par rapport aux animaux témoins.

[2] = tested on: mouvements répétés d'étirement et de torsion; assay: Analgesic activity: acetic acid-induced stretching (writhing) test, Koster; format: in vivo, souris; conditions: 0.25 h; mouse, oral route half an hour before i.p. acetic acid 100 mg/kg; stretches counted for 15 min; dose giving 50 % decrease in number of stretches vs controls; read-out: DA50 (the source's name)
Description: Le test employé est basé sur le fait signalé par R. KOSTER et Coll., (Fed. Proc. 1959, 16412) selon lequel l'injection intrapéritonéale d'acide acétique provoque, chez la souris, des mouvements répétés d'étirement et de torsion pouvant persister pendant plus de six heures. Les analgésiques préviennent ou diminuent ce syndrome qui peut être considéré comme l'extériorisation d'une douleur abdominale diffuse. On utilise une solution d'acide acétique à 1 % dans l'eau. La dose déclenchant le syndrome est dans ces conditions de 0,01 cm^3/g, soit 100 mg/kg d'acide acétique.
Le produit étudié est administré par voie buccale une demi-heure avant l'injection d'acide acétique, les souris étant à jeun depuis la veille de l'expérience.
Les étirements sont observés et comptés pour chaque souris pendant une période d'observation de quinze minutes commençant aussitôt après l'injection d'acide acétique.
Les résultats sont exprimés au moyen de la DA50, c'est-à-dire la dose qui permet d'obtenir une diminution de 50 % du nombre des étirements par rapport aux animaux témoins.

Structure (SMILES) | activité anti-inflammatoire ([1]; general statement in the description: models of chronic inflammation) | ED50 [2] [mg/kg] | activité anti-inflammatoire (arthrite chronique à l'adjuvant) ([1]; male rats, oral route from day 0 to the day before sacrifice on day 17, volume increase of non-injected hind paws (secondary inflammation), result given in words only)
COc1ccc(-n2c(-c3ccc(N(C)C)cc3)nnc2C(C)O)cc1 (stereo not drawn) [5-/4-(diméthylamino) phényl/ 4-(4-méthoxyphényl)α-méthyl 4H-1,2,4-triazole 3-méthanol] | une certaine activité anti-infiammatoire |  | 
COc1ccc(-n2c(-c3ccc(N(C)C)cc3)nnc2[C@H](C)O)cc1 [Exemple 11, 5-/4-(diméthylamino)-phényl/ 4-(4-méthoxyphényl)α-méthyl 4H-1,2,4-triazol-3-méthanol] |  | 4 | activité notable

From patent EP0176444A1, “Process for the preparation of derivatives of 4H-1,2,4-triazole, triazoles so obtained, their use as medicaments, and pharmaceutical compositons containing them” (ROUSSEL-UCLAF, priority 1984, dated 1986)
